Assay results published in publication PMC5974751, “NKp44-Derived Peptide Binds Proliferating Cell Nuclear Antigen and Mediates Tumor Cell Death” (Frontiers in Immunology, 2018).
One block for each molecule: values may come before it. Ends that are not written are not given here. * marks the point of attachment. Biotin = O=C1N[C@H]2[C@H](CS[C@H]2CCCCC(=O)*)N1

How the values were obtained:
[1] = system: B16 cells; assay: Flow cytometry based cell death assay (PI), B16; design: species or system murine; settings: 0–8 µM, 24 h
Description: (§1) Peptides were diluted before the incubation with the target cells with free DMEM culture medium to 0–16 µM according to peptide molecular weight. For adding the peptides, 0.5 ml was removed from each well, and 0.5 ml of diluted peptides was added to a final volume of 1 ml, 5% FCS, duplicates. Peptides were incubated with target cells for 24 h, and then the medium was collected, adherent cells were removed with trypsin–EDTA (0.5 ml, 3 min, BI: 03-052-1B), 1 ml of complete medium was added to each well, and the medium was collected (final volume 2.5 ml, on ice). For the cell death assay, samples were then centrifuged (1,300 rpm, 4°C, 5 min), the medium was removed, fresh 1 ml 10% FCS was added, and then 1 µl of 1 mg/ml PI was added to each sample and incubated (15 min, on ice) with the target cells. Before analyzing the samples, samples were centrifuged (1,300 rpm, 4°C, 5 min), the medium was removed, and fresh 0.2 ml FCAS buffer (PBS 1×, 20% FCS, 0.5% NaN3) was added. Samples were then read and analyzed using BD FACSCanto™ II and FlowJo®. APIM peptide and camptothecin (CPT) were used as positive controls ([38], [54]–[56]). Specific cell death was calculated as following: Y = 100*((sample cell death − basal cell death)/(100 − basal cell death)). Basal cell death = % of PI positive cells following incubation in complete culture media.

[2] = system: 4T1 cells; assay: Flow cytometry based cell death assay (PI), 4T1; design: species or system murine; settings: 4T1, PI flow cytometry, 0–8 µM, 24 h
Description: as §1

[3] = system: MDA-MB-231 cells; assay: Flow cytometry based cell death assay (PI), MDA-MB-231; design: species or system human; settings: MDA-MB-231, PI flow cytometry, 0–8 µM, 24 h
Description: as §1

[4] = system: 4T1 mammary carcinoma cells; assay: PrestoBlue cell viability, 4T1; assay type: cell-based, murine; settings: 4T1, PrestoBlue, 24 h; peptides 0–8 µM; selenite 25 µM
Description: (§2) Target cells (2.5 × 10^4 cells/well of a 48-well plate, Corning) were seeded and incubated in 37°C, 5% CO2 for 24 h in 0.5 ml of fresh complete DMEM (10% FBS) culture medium. According to molecular weight peptides were diluted from 8 to 2 µM with 5% FBS containing DMEM culture medium just before the incubation with the target cells. Medium was removed from each well, and 250 µl of diluted peptides was added and incubated for another 24 h at 37°C, 5% CO2. PrestoBlue (A13261, Invitrogen™) solution was prepared by diluting the dye 10-fold with complete DMEM. Medium was discarded from each well, and 250 µl of PrestoBlue solution was added to each well, shake gently and incubated at 37°C for another 1 h. Emission at 560 nm was measured in Premium Quad4 Monochromators plate reader (Tecan). Normalization was done relative to the appropriate control (DMEM or DMSO) to calculate the percentage of viable cells in each group. Selenite (25 µM) was used as a positive control ([52], [53]).

[5] = system: A549 lung carcinoma cells; assay: PrestoBlue cell viability, A549; assay type: cell-based, human; settings: 24 h, peptides 0–8 µM, selenite 25 µM
Description: as §2

[6] = system: pep8–PCNA interaction (recombinant PCNA); assay: ELISA-based inhibition of biotin-pep8 binding to PCNA; design: species or system human; settings: inhibitor 25 µg/ml 1 h, then biotin-pep8 5 µg/ml 1 h, room temperature, O.D. 650 nm
Description: To determine the ability of APIM-based peptide to suppress NKp44-pep8 interaction with PCNA, ELISA plates were coated with recombinant PCNA followed by PBS–skim milk added as described earlier. Plates were then incubated with 25 µg/ml of R11-NLS-pep8 (positive control), R11-NLS-pep8short (negative control), and APIM for 1 h at room temperature followed by addition of biotin-pep8 (5 µg/ml) without washing for 1 h at room temperature. Biotin-pep8 binding to PCNA was detected using streptavidin conjugated HRP (1 h at 1:500 dilution 100 μl/well). Following washing, TMB (100 μl/well DAKO, S1599) was added. O.D. was read at 650 nm (Thermo Electron Corporation Multiskan Spectrum).

[7] = system: B16 melanoma cells; assay: PrestoBlue cell viability, B16; assay type: cell-based, murine; settings: 24 h
Description: as §2

[8] = system: PANC-1 pancreas ductal adenocarcinoma cells; assay: PrestoBlue cell viability, PANC-1; assay type: cell-based, human; settings: PANC-1, PrestoBlue, 24 h
Description: as §2

[9] = system: HepG2 hepatocellular carcinoma cells; assay: PrestoBlue cell viability, HepG2; assay type: cell-based, human; settings: 24 h
Description: as §2

[10] = system: MDA-MB-231 breast adenocarcinoma cells; assay: PrestoBlue cell viability, MDA-MB-231; assay type: cell-based, human; settings: MDA-MB-231, PrestoBlue, 24 h
Description: as §2

[11] = system: recombinant human PCNA (hPCNA); assay: ELISA binding of biotinylated NKp44-derived peptides to plate-bound recombinant PCNA; settings: biotinylated peptide, 0–7.24 µM (Figure 1A), streptavidin-HRP, TMB, O.D. 650 nm
Description: The pET-28 or pMAL-c2x vectors were used to produce soluble human PCNA (hPCNA) in Rosetta™ 2 (DE3) cells. Plasmids containing the mRNA sequence of PCNA or TL1A, APO-E3, HNF4 were transformed into Rosetta™ 2 cells via heat shock and grown on LB agar plates with kanamycin and chloramphenicol. A fresh colony of transformed bacteria was grown overnight in a 5 ml of LB with kanamycin and chloramphenicol an incubator shaker set to 37°C and at 250 rpm. The next day, bacteria cells were diluted 1:100 into a 500 ml of LB with kanamycin and chloramphenicol (to discard dead cells) and grown to an optical density (O.D.) of 0.6–0.8 (λ = 650 nm). Isopropyl β-D-1-thiogalactopyranoside (0.5 mM) was added for the induction of the PCNA production, and cells were further incubated for 4 h at 26°C (hPCNA). Cells were then centrifuged and the pellet was resuspended with solution A (20 mM Tris–HCl pH 8.0, 0.5 M NaCl, 20 mM imidazole), sonicated six times (20 s with 40 s intervals) and sieved through […] (Sartorius Stedim Biotech) filter before loaded on a His-tag or Amylose resin beads. Purification of His-tagged proteins was done using a Gravity-flow Column with “HisPur™ Ni-NTA Resin” Bead kit (Thermo-Scientific) (binding capacity ≤ 60 mg of a 28 kDa 6xHis-tagged protein from a bacterial source per milliliter of settled resin) according to Kits Protocol. Purification of MBP-tagged proteins was done using the Amylose resin beads (Catalog # E8035S).
To determine the interaction between NKp44-derived peptides and PCNA, ELISA plates were coated overnight at 4°C with 2 µg/ml of the recombinant PCNA or TLA1 ([49]), APO-E3 ([50]), HNF4 ([4]), rhFc, rhNKp44-hFc ([12]), rhNKp46-hFc ([51]), and PBS 1× (negative controls). Blocking buffer (PBS + 2.5% skim milk) was applied for 2 h at room temperature, after that the plates were incubated with 0–8 µM of biotinylated NKp44-derived peptides or PBS 1× (background control) for 2 h at room temperature. NKp44-derived peptides binding to PCNA was detected using horseradish peroxidase (HRP)-conjugated to streptavidin (1 h at 1:500 dilution). Following washing, TMB (DAKO, S1599) was added. O.D. was read at 650 nm (Thermo Electron Corporation Multiskan Spectrum). Between each step, wells were washed three times with PBS containing 0.05% Tween 20 (PBST).

[12] = biological target: T1, MBP-fused recombinant human PCNA (human, UniProt P12004 1-261); assay: SPR; ProteOn XPR36, GLC chip; peptides immobilised by EDC/S-NHS amine coupling; MBP-PCNA 0-250 nM as analyte at 25 µl/min; equilibrium analysis model; settings: both partners purified
T1 construct: proliferating cell nuclear antigen, human; vector pMAL-c2x; Analyte of the SPR experiments; also called MBP-PCNA; hPCNA; source: E. coli Rosetta 2 (DE3), purified (amylose resin)

[13] = biological target: T2, recombinant human PCNA (proliferating cell nuclear antigen) (human, UniProt P12004 1-261); assay: ELISA; plates coated overnight at 4°C with 2 µg/ml recombinant protein; blocked with PBS + 2.5% skim milk; 0-8 µM biotinylated NKp44-derived peptides, 2 h at room temperature; streptavidin-HRP; settings: both partners purified
T2 construct: proliferating cell nuclear antigen, human; PCNA coated on ELISA plates; also called hPCNA; recombinant PCNA; source: E. coli Rosetta 2 (DE3), purified (Ni-NTA or amylose resin); not shown: His tag or MBP (from the vectors pET-28 or pMAL-c2x)
T2 sequence (P12004 whole entry): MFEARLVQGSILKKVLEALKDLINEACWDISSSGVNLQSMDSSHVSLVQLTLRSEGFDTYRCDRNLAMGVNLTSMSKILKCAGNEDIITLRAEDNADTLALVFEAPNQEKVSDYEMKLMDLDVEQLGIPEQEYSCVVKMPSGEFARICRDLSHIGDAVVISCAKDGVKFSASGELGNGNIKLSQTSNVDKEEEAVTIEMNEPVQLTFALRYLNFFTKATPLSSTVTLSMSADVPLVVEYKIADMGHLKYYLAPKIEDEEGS

T1 sequence (P12004 whole entry, the tested form may be a part): as the sequence (P12004 whole entry) above

Molecule: CC[C@@]1(O)C(=O)OCc2c1cc1n(c2=O)Cc2cc3ccccc3nc2-1 [CPT, camptothecin, reference compound]
- induction of cell death, in words [1]: lower, but stable levels of cell death
- induction of cell death, in words [2]: lower, but stable levels of cell death
- induction of cell death, in words [3]: lower, but stable levels of cell death

Molecule: O=[Se](O)O [Selenite, reference compound]
- effect on cell viability, in words [4]: significantly reduced cell viability
- effect on cell viability, in words [5]: significantly reduced cell viability

- inhibition of pep8 binding to PCNA [6]: 7%
Molecule: MDRWLVK-W-KKKRK-I-RRRRRRRRRRR [APIM, published PCNA-targeting peptide used as positive control, reference compound]
- induction of cell death, in words [1]: strong induction of cell death
- induction of cell death, in words [2]: strong induction of cell death
- induction of cell death, in words [3]: strong induction of cell death

- inhibition of pep8 binding to PCNA [6]: 10%
Molecule: RRRRRRRRRRR-I-KKKRK-W-VTSSKPRTVA [R11-NLS-pep8short, R11-NLS fused to pep8short, negative control]
- effect on cell viability, in words [4]: did not affect 4T1 cell viability
- effect on cell viability, in words [5]: did not show any effect on tumor cell viability
- effect on cell viability, in words [7]: none to dull effect
- effect on cell viability, in words [8]: none to dull effect
- effect on cell viability, in words [9]: none to dull effect
- effect on cell viability, in words [10]: none to dull effect
- induction of cell death, in words [1]: did not induce any cell death
- induction of cell death, in words [2]: did not induce any cell death
- induction of cell death, in words [3]: did not induce any cell death

- binding to recombinant hPCNA [11]: does not bind PCNA
- binding to recombinant hPCNA ([11]; listed as 10-mer shared core sequence of pep8 and pep10): did not bind PCNA
Molecule: VTSSKPRTVA [pep8short, short form of pep8]

- binding to recombinant hPCNA [11]: negative binding
Molecule: YPPTGSLYEKKGWCKEASAL [pep5, NKp44-derived peptide used as negative control]

- Kd [12]: 490 nM
B1: NKp44-derived pep8 (immobilised for SPR) (peptide)
peptide: EASALVCIRLVTSSKPRTVA
notes: NKp44 (NCR2), amino acids 57-76, with the natural SNP variant (rs9471577) valine at 75; also called NKp44-pep8; source: synthetic peptide

- binding result [13]: binds
B2: biotinylated NKp44-derived peptide #8 (peptide)
peptide: Biotin-EASALVCIRLVTSSKPRTVA
notes: NKp44 (NCR2), amino acids 57-76, with the natural SNP variant (rs9471577) valine at 75; also called pep8; NKp44-pep8; source: synthetic peptide (PEP screen, Sigma-Aldrich; selected peptides from GL Biochem)

- binding result [13]: binds
B3: biotinylated NKp44-derived peptide #10 (peptide)
peptide: Biotin-VTSSKPRTVAWTSRFTIWAA
notes: NKp44 (NCR2), amino acids 67-86, with valine at 75 (SNP rs9471577); also called pep10; NKp44-pep10; source: synthetic peptide (PEP screen, Sigma-Aldrich; selected peptides from GL Biochem)

- Kd [12]: 87 nM
B4: R11-NLS-pep8 (peptide)
peptide: RRRRRRRRRRRIKKKRKWEASALVCIRLVTSSKPRTVA
modifications: not fully specified (residue 38, N-terminus); printed as RRRRRRRRRRR-I-KKKRK-W-EASALVCIRLVTSSKPRTVA
notes: cell-penetrating moiety: R11, I, NLS stretch KKKRK, W; NKp44 (NCR2), amino acids 57-76 (pep8), with valine at 75 (SNP rs9471577); also called CPP-pep8; source: synthetic peptide (GL Biochem, purity > 95%)
